Earlier results as cited in patent US11452694B2, “High concentration dosage forms of pridopidine” (PRILENIA NEUROTHERAPEUTICS LTD., priority 2017, dated 2022).

Tested on: neuroblastoma cell line
Conditions: SIR-dependent manner

CCCN1CCC(c2cccc(S(C)(=O)=O)c2)CC1 [Pridopidine, 4-(3-(Methylsulfonyl)phenyl)-1-propylpiperidine]
secretion of brain-derived neurotrophic factor (BDNF): enhance secretion
